Assay results: patent US20050282743A1, “Molecular interactions in cells” (Arbor Vita Corporation, priority 2001, published 2005)
Ends that are not written are not given here. Peptide text beside a SMILES is read from it. * marks the point of attachment. Biotin = O=C1N[C@H]2[C@H](CS[C@H]2CCCCC(=O)*)N1

Experiments:
Assay in all cases: G' assay (10 uM PL peptide), results of TABLE 7 and TABLE 12
Type in all cases: binding
[1] = target: T1, PDZ protein (GST-PDZ fusion) (Homo sapiens, UniProt Q14CM0); settings: PDZ KIAA0316, PDZ Domain 1
T1 construct: made in house; host or cells: E. coli (DH5alpha, BL21 or JM109)
T1 sequence (Q14CM0 1-1322): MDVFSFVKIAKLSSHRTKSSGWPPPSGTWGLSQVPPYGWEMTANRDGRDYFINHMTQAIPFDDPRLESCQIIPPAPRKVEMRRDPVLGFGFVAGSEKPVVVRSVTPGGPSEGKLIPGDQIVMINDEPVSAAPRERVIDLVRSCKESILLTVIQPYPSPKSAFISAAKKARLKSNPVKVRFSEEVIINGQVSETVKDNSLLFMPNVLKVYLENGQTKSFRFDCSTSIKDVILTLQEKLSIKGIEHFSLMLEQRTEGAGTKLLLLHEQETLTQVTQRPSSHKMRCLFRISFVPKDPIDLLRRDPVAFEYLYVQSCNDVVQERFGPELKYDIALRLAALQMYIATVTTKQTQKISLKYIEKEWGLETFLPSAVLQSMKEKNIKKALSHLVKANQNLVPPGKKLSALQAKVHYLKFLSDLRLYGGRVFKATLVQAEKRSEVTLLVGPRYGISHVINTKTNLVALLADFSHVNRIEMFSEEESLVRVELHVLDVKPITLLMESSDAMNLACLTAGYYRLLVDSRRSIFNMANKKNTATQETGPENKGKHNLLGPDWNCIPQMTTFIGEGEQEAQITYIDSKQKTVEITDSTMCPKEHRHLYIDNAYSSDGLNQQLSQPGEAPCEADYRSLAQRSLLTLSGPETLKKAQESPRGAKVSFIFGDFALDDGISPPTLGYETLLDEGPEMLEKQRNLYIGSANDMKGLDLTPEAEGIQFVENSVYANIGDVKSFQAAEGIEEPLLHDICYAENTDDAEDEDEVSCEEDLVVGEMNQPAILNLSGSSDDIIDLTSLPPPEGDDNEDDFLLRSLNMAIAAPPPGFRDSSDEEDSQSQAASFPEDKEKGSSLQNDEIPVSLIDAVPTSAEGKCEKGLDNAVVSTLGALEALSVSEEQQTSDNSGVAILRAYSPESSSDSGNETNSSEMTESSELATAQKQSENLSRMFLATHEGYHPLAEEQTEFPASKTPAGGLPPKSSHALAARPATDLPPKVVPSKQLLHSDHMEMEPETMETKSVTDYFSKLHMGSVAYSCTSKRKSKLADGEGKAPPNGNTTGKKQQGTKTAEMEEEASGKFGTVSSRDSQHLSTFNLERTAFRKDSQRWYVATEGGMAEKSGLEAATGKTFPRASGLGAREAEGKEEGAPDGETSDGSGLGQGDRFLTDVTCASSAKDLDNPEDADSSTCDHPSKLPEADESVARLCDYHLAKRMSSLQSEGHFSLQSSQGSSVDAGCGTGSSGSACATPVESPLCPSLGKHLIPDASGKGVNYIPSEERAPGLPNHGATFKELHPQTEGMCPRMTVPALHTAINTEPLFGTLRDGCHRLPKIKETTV
Procedure, shortened: (§1)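 Binding classes derive from A450 nm of bound biotin-tagged PL peptide. A score of 5 needs A450 above 4 in more than two repeats.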

[2] = target: T2, PDZ protein (GST-PDZ fusion) (Homo sapiens, UniProt Q8TEW0); settings: PDZ PAR3, PDZ Domain 3
T2 construct: made in house; host or cells: E. coli (DH5alpha, BL21 or JM109)
T2 sequence (Q8TEW0 whole entry, the tested form may be a part): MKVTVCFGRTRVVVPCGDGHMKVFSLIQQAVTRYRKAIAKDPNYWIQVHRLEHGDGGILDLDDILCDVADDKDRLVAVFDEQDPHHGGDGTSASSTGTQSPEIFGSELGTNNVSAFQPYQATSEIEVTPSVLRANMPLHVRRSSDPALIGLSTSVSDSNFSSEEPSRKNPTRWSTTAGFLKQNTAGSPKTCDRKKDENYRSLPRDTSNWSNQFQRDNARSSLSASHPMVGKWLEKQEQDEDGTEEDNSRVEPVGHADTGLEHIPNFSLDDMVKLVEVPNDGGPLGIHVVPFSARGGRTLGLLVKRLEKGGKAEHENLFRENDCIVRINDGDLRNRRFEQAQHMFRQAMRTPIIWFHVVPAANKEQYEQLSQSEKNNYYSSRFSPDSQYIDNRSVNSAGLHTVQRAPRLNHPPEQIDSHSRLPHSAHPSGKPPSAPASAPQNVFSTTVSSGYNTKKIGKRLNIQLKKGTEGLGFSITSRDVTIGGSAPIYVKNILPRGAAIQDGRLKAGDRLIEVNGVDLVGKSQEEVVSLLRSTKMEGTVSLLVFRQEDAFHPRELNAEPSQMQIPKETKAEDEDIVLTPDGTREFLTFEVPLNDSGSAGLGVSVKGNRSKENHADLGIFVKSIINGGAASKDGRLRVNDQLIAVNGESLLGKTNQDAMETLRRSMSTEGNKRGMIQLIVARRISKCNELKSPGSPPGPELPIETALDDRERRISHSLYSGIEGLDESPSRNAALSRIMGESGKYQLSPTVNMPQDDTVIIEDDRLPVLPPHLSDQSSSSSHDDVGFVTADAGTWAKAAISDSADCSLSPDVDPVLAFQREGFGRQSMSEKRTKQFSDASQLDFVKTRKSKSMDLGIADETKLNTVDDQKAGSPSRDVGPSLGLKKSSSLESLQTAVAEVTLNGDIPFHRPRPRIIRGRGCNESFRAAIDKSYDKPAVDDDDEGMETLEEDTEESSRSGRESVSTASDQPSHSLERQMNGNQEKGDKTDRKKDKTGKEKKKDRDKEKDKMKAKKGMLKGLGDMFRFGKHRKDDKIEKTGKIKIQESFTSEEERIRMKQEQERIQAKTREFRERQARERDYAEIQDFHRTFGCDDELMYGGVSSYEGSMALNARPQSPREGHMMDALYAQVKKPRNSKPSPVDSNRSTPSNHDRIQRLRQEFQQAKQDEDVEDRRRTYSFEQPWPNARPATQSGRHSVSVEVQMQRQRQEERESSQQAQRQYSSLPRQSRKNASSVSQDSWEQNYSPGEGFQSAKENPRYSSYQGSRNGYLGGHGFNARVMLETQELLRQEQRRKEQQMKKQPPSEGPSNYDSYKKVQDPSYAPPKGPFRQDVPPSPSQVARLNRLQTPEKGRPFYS
Procedure, shortened: as §1

[3] = target: T3, PDZ protein (GST-PDZ fusion) (Homo sapiens, UniProt O14908); settings: PDZ TAX IP2, PDZ Domain 1
T3 construct: made in house; host or cells: E. coli (DH5alpha, BL21 or JM109)
T3 sequence (O14908 1-333): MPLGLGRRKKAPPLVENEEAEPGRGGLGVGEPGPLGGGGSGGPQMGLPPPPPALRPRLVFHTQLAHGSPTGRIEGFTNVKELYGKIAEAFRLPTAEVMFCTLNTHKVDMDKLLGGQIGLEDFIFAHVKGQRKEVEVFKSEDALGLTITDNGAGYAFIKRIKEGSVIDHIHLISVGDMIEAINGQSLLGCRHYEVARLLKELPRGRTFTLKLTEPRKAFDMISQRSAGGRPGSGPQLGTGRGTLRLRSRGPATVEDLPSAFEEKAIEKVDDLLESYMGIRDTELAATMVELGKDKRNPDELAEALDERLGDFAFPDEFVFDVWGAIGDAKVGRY
Procedure, shortened: as §1

| Compound | Classification [1] | Classification [2] | Classification [3] |
| --- | --- | --- | --- |
| CC[C@H](C)[C@H](NC(=O)[C@H](CO)NC(=O)[C@H](CCC(=O)O)NC(=O)[C@H](Cc1ccc(O)cc1)NC(=O)[C@H](CC(=O)O)NC(=O)[C@H](CC(N)=O)NC(=O)[C@H](CCC(=O)O)NC(=O)[C@H](CCCCN)NC(=O)CCCC[C@@H]1SC[C@@H]2NC(=O)N[C@@H]21)C(=O)N[C@@H](CO)C(=O)N[C@@H](CC(=O)O)C(=O)N[C@@H](CC(C)C)C(=O)N[C@@H](CCC(N)=O)C(=O)N[C@@H](CCC(N)=O)C(=O)NCC(=O)N[C@@H](CCCNC(=N)N)C(=O)N[C@@H](CC(=O)O)C(=O)N[C@H](C(=O)N[C@H](C(=O)N[C@@H](CCCNC(=N)N)C(=O)N[C@@H](CC(C)C)C(=O)O)[C@@H](C)O)[C@@H](C)CC [PAG] (Biotin-KENDYESISDLQQGRDITRL-OH; C-terminus assumed) | 1 (A450 nm 0-1) |  |  |
| KTMPAATYRLLTGQEQPVYL (Biotin-KTMPAATYRLLTGQEQPVYL) [MINT-3] | 2 (A450 nm 1-2) | 1 (A450 nm 0-1) |  |
| CC(C)C[C@H](NC(=O)[C@H](C)NC(=O)[C@@H](NC(=O)[C@H](CCC(=O)O)NC(=O)[C@H](CCCNC(=N)N)NC(=O)[C@H](CCCNC(=N)N)NC(=O)CNC(=O)[C@H](CCC(N)=O)NC(=O)[C@H](CC(C)C)NC(=O)[C@H](CCCNC(=N)N)NC(=O)CNC(=O)CNC(=O)[C@H](CCCNC(=N)N)NC(=O)[C@H](C)NC(=O)[C@H](CO)NC(=O)[C@H](CCCNC(=N)N)NC(=O)CNC(=O)CNC(=O)[C@H](C)NC(=O)[C@H](C)NC(=O)CCCC[C@@H]1SC[C@@H]2NC(=O)N[C@@H]21)[C@@H](C)O)C(=O)O [HPV E6 33 (modified)] (Biotin-AAGGRSARGGRLQGRRETAL-OH; C-terminus assumed) | 2 (A450 nm 1-2) |  |  |
| CC(C)C[C@H](NC(=O)[C@H](CC(C)C)NC(=O)[C@@H](NC(=O)[C@H](CC(=O)O)NC(=O)CCCC[C@@H]1SC[C@@H]2NC(=O)N[C@@H]21)[C@@H](C)O)C(=O)N[C@@H](CC(C)C)C(=O)N[C@H](C(=O)N[C@@H](CCC(=O)O)C(=O)N[C@@H](CC(N)=O)C(=O)N[C@@H](CCC(=O)O)C(=O)NCC(=O)N[C@@H](CC(=O)O)C(=O)N[C@@H](CCCCN)C(=O)N[C@H](C(=O)N[C@@H](CCC(=O)O)C(=O)N[C@@H](CCC(=O)O)C(=O)N[C@@H](CCC(N)=O)C(=O)N[C@H](C(=O)N[C@@H](CO)C(=O)N[C@@H](Cc1ccc(O)cc1)C(=O)N[C@H](C(=O)O)C(C)C)C(C)C)[C@@H](C)O)[C@@H](C)O [5H2B_HUMAN] (Biotin-DTLLLTENEGDKTEEQVSYV-OH; C-terminus assumed) | 1 (A450 nm 0-1) |  |  |
| CC(C)C[C@H](NC(=O)[C@H](CC(=O)O)NC(=O)[C@H](CO)NC(=O)[C@H](CCC(=O)O)NC(=O)CNC(=O)[C@H](Cc1ccc(O)cc1)NC(=O)[C@H](CC(C)C)NC(=O)[C@H](C)NC(=O)[C@H](CO)NC(=O)[C@H](CO)NC(=O)[C@H](Cc1ccccc1)NC(=O)[C@H](C)NC(=O)[C@H](C)NC(=O)[C@H](Cc1ccc(O)cc1)NC(=O)[C@H](CC(=O)O)NC(=O)[C@H](CC(C)C)NC(=O)[C@H](C)NC(=O)CNC(=O)[C@@H]1CCCN1C(=O)[C@@H](NC(=O)CCCC[C@@H]1SC[C@@H]2NC(=O)N[C@@H]21)C(C)C)C(=O)O [a-actinin 2] (Biotin-VPGALDYAAFSSALYGESDL-OH; C-terminus assumed) | 1 (A450 nm 0-1) | 1 (A450 nm 0-1) | 5 (A450 nm of 4 more than 2× repeated) |
| CC(C)C[C@H](NC(=O)[C@H](C)NC(=O)[C@@H](NC(=O)[C@@H](NC(=O)[C@H](Cc1c[nH]cn1)NC(=O)[C@H](CC(C)C)NC(=O)CNC(=O)[C@H](CCC(N)=O)NC(=O)CNC(=O)CNC(=O)[C@H](C)NC(=O)[C@H](C)NC(=O)[C@H](CCCNC(=N)N)NC(=O)[C@H](C)NC(=O)[C@H](CO)NC(=O)[C@H](CC(=O)O)NC(=O)[C@H](CC(=O)O)NC(=O)[C@H](Cc1c[nH]c2ccccc12)NC(=O)[C@H](C)NC(=O)CCCC[C@@H]1SC[C@@H]2NC(=O)N[C@@H]21)C(C)C)[C@@H](C)O)C(=O)O [LPAP] (Biotin-AWDDSARAAGGQGLHVTAL-OH; C-terminus assumed) | 1 (A450 nm 0-1) |  |  |
